Measurements taken from US4743594A, “Antibiotic, antitumor compounds and their use” (priority 1984, dated 1988).
≈ marks a conversion by molar mass, not a printed value.

Experiments:
[1] = test system: Sarcina lutea (ATCC 9341); test: in-vitro antibacterial activity, agar dilution (MIC); assay type: cell-based; details: Micrococcus luteus, ATCC9341, MHA, 48 hrs, pH 7.4, read-out: Minimum Inhibitory Concentration (MIC)
Protocol: (§1) Antibiotics AT 2433 A1, AT 2433 A2, and AT 2433 B1 and AT 2433 B2 were tested in-vitro to determine anti-bacterial activity against a variety of gram-positive and gram-negative organisms
(§2) The in-vitro antibacterial activity tests were performed via conventional agar dilution methods in Muell-Hintom agar (MHA) at pH 7.4.

gram-positive bacteria = test: antibacterial activity against gram-positive bacteria; assay type: cell-based
Protocol: as §1, §2

[2] = in-vivo antitumor activity against transplanted mouse P-388 leukemia (NCI test); details: mouse, in vivo; every 3rd day for 3 injections, ip; read-out: maximum tolerated dose (no day 5 or earlier deaths due to toxicity)
Protocol: (§3) Anti-tumor activity was determined by the standard National Cancer Institute test which was published in Cancer Chemothr. Rep. 3:1-103, 1972.
(§4) In the test, 10^6 cells (a lethal dose) per mouse of P-388 leukemia are administered interperitoneally on day 0. The test compounds are serially diluted (1:2, 1:4, 1:8, etc.) and each dilution is administered interperitoneally to the mice on days 1, 4 and 7.
(§5) ^1 Tumor inoculum: 10^6 ascites cells, ip
(§6) ^2 Host: CDF1 male mice
(§7) ^3 Treatment schedule: For AT 2433 A1 and B1, ip. days 1, 4
(§8) ^4 Tox: Toxic, i.e., <4/6 mice alive on day 5
(§9) ^5 MST: Median survived time in days
(§10) ^6 % T/C: (MSTTreated/MST-Control) × 100
(§11) ^7 Criteria: If % T/C >125, the test compound is considered to exhibi
(§12) significant antitumor activity at that dose.

P-388 leukemia = test: as above; details: for MST (% T/C): >125 = significant antitumor activity; for in-vivo antitumor activity: P-388 leukemia in mice
Protocol: as §3, §4, §5, §6, §7, §8, §9, §10, §11, §12

E. Coli SS 1431 = test: in-vitro antibacterial activity, agar dilution (MIC); assay type: cell-based; details: Escherichia coli, MHA, 48 hrs, pH 7.4
Protocol: as §1, §2

gram-negative bacteria = test: antibacterial activity against gram-negative bacteria; assay type: cell-based
Protocol: as §1, §2

[3] = 0.5 mg/kg/inj, ip, days 1, 4 and 7
[4] = 0.5 mg/kg/inj, ip, days 1, 4 and 7, CDF1 male mice
[5] = 1 mg/kg/inj, ip, days 1, 4 and 7
[6] = 1 mg/kg/inj, ip, days 1, 4 and 7, CDF1 male mice
[7] = 2 mg/kg/inj, ip, days 1, 4 and 7
[8] = 2 mg/kg/inj, ip, days 1, 4 and 7, CDF1 male mice
[9] = 4 mg/kg/inj, ip, days 1, 4 and 7
[10] = 4 mg/kg/inj, ip, days 1, 4 and 7, CDF1 male mice
[11] = 8 mg/kg/inj, ip, days 1, 4 and 7
[12] = 8 mg/kg/inj, ip, days 1, 4 and 7, CDF1 male mice
[13] = 16 mg/kg/inj, ip, days 1, 4 and 7, CDF1 male mice
[14] = 16 mg/kg/inj, ip, days 1, 4 and 7

SMILES | MIC [1] [µg/mL] | antibacterial activity against gram-positive bacteria (gram-positive bacteria) | MST (% T/C) (P-388 leukemia; [3]) [%] | MST (median survived time) (P-388 leukemia; [4]) [days] | Avg. wt. change, gm on day 5 (P-388 leukemia; [3]) [gm] | Survivors day 5 (P-388 leukemia; [3]) | MST (% T/C) (P-388 leukemia; [5]) [%] | MST (median survived time) (P-388 leukemia; [6]) [days] | Avg. wt. change, gm on day 5 (P-388 leukemia; [5]) [gm] | Survivors day 5 (P-388 leukemia; [5]) | MST (% T/C) (P-388 leukemia; [7]) [%] | MST (median survived time) (P-388 leukemia; [8]) [days] | Avg. wt. change, gm on day 5 (P-388 leukemia; [7]) [gm] | Survivors day 5 (P-388 leukemia; [7]) | MST (% T/C) (P-388 leukemia; [9]) [%] | MST (median survived time) (P-388 leukemia; [10]) [days] | Avg. wt. change, gm on day 5 (P-388 leukemia; [9]) [gm] | Survivors day 5 (P-388 leukemia; [9]) | MST (% T/C) (P-388 leukemia; [11]) [%] | MST (median survived time) (P-388 leukemia; [12]) [days] | other results
CNC1COC(OCC2OC(n3c4c(Cl)cccc4c4c5c(c6c7ccccc7[nH]c6c43)C(=O)N(C)C5=O)C(O)C(O)C2OC)CC1O (stereo not drawn) [AT 2433 A1] | 0.25 (≈ 0.368 µM) | active | 150 | 13.5 | -0.2 | 6/6 | 150 | 13.5 | -0.7 | 6/6 | 172 | 15.5 | -2.2 | 6/6 | 156 | 14.0 | -2.3 | 5/6 | 194 | 17.5 | MTD [2]: 2 mg/kg; increase in life span over controls (P-388 leukemia; 2 mg/kg given every 3rd day for 3 injections): 72%; Avg. wt. change, gm on day 5 (P-388 leukemia; [11]): -4.1 gm; Survivors day 5 (P-388 leukemia; [11]): 4/6; MST (% T/C) (toxicity flag) (P-388 leukemia; [13]): Tox (Toxic, i.e., <4/6 mice alive on day 5); MST (toxicity flag) (P-388 leukemia; [13]): Tox (Toxic, i.e., <4/6 mice alive on day 5); Avg. wt. change, gm on day 5 (P-388 leukemia; [14]): -3.2 gm; Survivors day 5 (P-388 leukemia; [14]): 2/6; in-vivo antitumor activity (P-388 leukemia): exhibited in-vivo antitumor activity
COC1C(COC2CC(O)C(N)CO2)OC(n2c3c(Cl)cccc3c3c4c(c5c6ccccc6[nH]c5c32)C(=O)N(C)C4=O)C(O)C1O (stereo not drawn) [AT 2433 A2] | 1 (≈ 1.5 µM) | active |  |  |  |  |  |  |  |  |  |  |  |  |  |  |  |  |  |  | 
CNC1COC(OCC2OC(n3c4ccccc4c4c5c(c6c7ccccc7[nH]c6c43)C(=O)N(C)C5=O)C(O)C(O)C2OC)CC1O (stereo not drawn) [AT 2433 B1] | 0.25 (≈ 0.388 µM) | active | 111 | 10.0 | 3.0 | 5/5 | 117 | 10.5 | 3.0 | 5/5 | 122 | 11.0 | 0.0 | 6/6 | 133 | 12.0 | -0.6 | 6/6 | 133 | 12.0 | MIC (E. Coli SS 1431): 16 µg/mL (≈ 24.8 µM); antibacterial activity against gram-negative bacteria (gram-negative bacteria): exhibit antibacterial activity; Avg. wt. change, gm on day 5 (P-388 leukemia; [11]): -0.3 gm; Survivors day 5 (P-388 leukemia; [11]): 6/6; MST (% T/C) (P-388 leukemia; [14]): 144%; MST (median survived time) (P-388 leukemia; [13]): 13.0 days; Avg. wt. change, gm on day 5 (P-388 leukemia; [14]): -0.7 gm; Survivors day 5 (P-388 leukemia; [14]): 6/6; in-vivo antitumor activity (P-388 leukemia): exhibited in-vivo antitumor activity; tumor growth inhibition (P-388 leukemia; highest dose tested, 16 mg/kg): inhibitory to tumor growth but less effective than AT 2433 A1
COC1C(COC2CC(O)C(N)CO2)OC(n2c3ccccc3c3c4c(c5c6ccccc6[nH]c5c32)C(=O)N(C)C4=O)C(O)C1O (stereo not drawn) [AT 2433 B2] | 4 (≈ 6.34 µM) | active |  |  |  |  |  |  |  |  |  |  |  |  |  |  |  |  |  |  | 
